Test systems include NCI-H226; MDA-MB-435; BT-549; SNB-75; DU-145; A549; 786-0; ACHN; MDA-MB-231; CAKI-1; UACC-257; EKVX; SF-295; MCF7; HOP-62; OVCAR-4; LOX IMVI; Hs-578T; SK-MEL-2; M14.
What all share (assay): DTP human tumour cell line panel, 48 h

Each structure is given as a SMILES string.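 Test compounds were applied to cells in 96-well plates for 48 hours at 5 doses. GI50 = concentration required for 50% inhibition of growth.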 Active and inactive are the calls of the source. Cut-off read from the data, not from the text of the source: active = GI50 up to about 1.1 µM and inactive = higher. Bounds are passed on as bounds.

The source of these data is ChEMBL document CHEMBL1201862, “PubChem BioAssay data set” (2004).

Turning to `O=C(CON1C(=O)c2ccccc2C1=O)c1ccccc1`, the GI50 with NCI-H226 is > 100 µM (inactive); in the assay on MDA-MB-435 it was 42 µM (inactive); in the assay on BT-549 it was > 100 µM (inactive); in the assay with SNB-75, 97.5 µM (inactive); with DU-145, > 100 µM (inactive); in the assay with A549 it was > 100 µM (inactive). For the same compound, the GI50 is 32.4 µM (inactive) in the assay on 786-0; > 100 µM (inactive) in the assay on ACHN; > 100 µM (inactive) with MDA-MB-231; 19.1 µM (inactive) in the assay with CAKI-1; 34.8 µM (inactive) in the assay on UACC-257; > 100 µM (inactive) with EKVX. In addition, the GI50 is > 100 µM (inactive) in the assay with SF-295; 40.1 µM (inactive) with MCF7; > 100 µM (inactive) in the assay with HOP-62; 77.8 µM (inactive) in the assay on OVCAR-4; 35.6 µM (inactive) in the assay with LOX IMVI; > 100 µM (inactive) in the assay on Hs-578T. Besides, the GI50 in the assay on SK-MEL-2 is > 100 µM (inactive); in the assay with M14, 57.1 µM (inactive).
Turning to `O=C(O)C1CCN(Cc2oc(CO)cc(=O)c2O)C1` (stereo not given), the GI50 in the assay with NCI-H226, in the assay on MDA-MB-435, with BT-549, with SNB-75, in the assay on DU-145 and in the assay on A549 was > 100 µM (inactive) throughout. The GI50 in the assay on 786-0, in the assay with ACHN, in the assay with MDA-MB-231, in the assay with CAKI-1, with UACC-257 and in the assay with EKVX was > 100 µM (inactive) in each case. Besides, the GI50 in the assay on SF-295, with MCF7, in the assay on HOP-62, in the assay with OVCAR-4, in the assay with LOX IMVI and with Hs-578T was > 100 µM (inactive) each time. Moreover, the GI50 in the assay with SK-MEL-2 and in the assay with M14 was > 100 µM (inactive) each time.
With `COc1nncc2[nH]c(-c3ccccc3)cc12`, the GI50 in the assay on NCI-H226 is 80.9 µM (inactive); with MDA-MB-435, 73.3 µM (inactive); with BT-549, 40.5 µM (inactive); in the assay with SNB-75 it was 58.1 µM (inactive); in the assay with DU-145, 90.4 µM (inactive); in the assay on A549 it was 65.3 µM (inactive). Besides, the GI50 in the assay on 786-0 was 70 µM (inactive); in the assay with ACHN it was 54 µM (inactive); in the assay with MDA-MB-231 it was 49.8 µM (inactive); with CAKI-1, 96.8 µM (inactive); with UACC-257, 71.1 µM (inactive); in the assay with EKVX, 29.4 µM (inactive). Further, the GI50 in the assay with SF-295 is 82.4 µM (inactive); in the assay on MCF7 it was 49.7 µM (inactive); in the assay with HOP-62 it was > 100 µM (inactive); with OVCAR-4 it was 93.5 µM (inactive); in the assay with LOX IMVI it was 65 µM (inactive); in the assay with Hs-578T it was 44 µM (inactive). The GI50 in the assay with SK-MEL-2 is 33.9 µM (inactive); with M14, 86.7 µM (inactive).
As to `Brc1ccc(CCNCCN2CCCCC2)cc1`, the GI50 in the assay with NCI-H226 was 37.8 µM (inactive); in the assay on MDA-MB-435, 5.47 µM (inactive); in the assay with BT-549, 15.7 µM (inactive); with SNB-75, 12.8 µM (inactive); in the assay on DU-145 it was 35.6 µM (inactive); in the assay with A549, 16.4 µM (inactive). Also, the GI50 in the assay on 786-0 was 14.1 µM (inactive); with ACHN, 20.6 µM (inactive); in the assay with MDA-MB-231, 8.05 µM (inactive); in the assay on CAKI-1 it was 14.1 µM (inactive); in the assay on UACC-257, 14.8 µM (inactive); in the assay on EKVX, 33.1 µM (inactive). Further, the GI50 is 18.3 µM (inactive) in the assay on SF-295; 15.7 µM (inactive) in the assay with MCF7; 20.4 µM (inactive) in the assay on HOP-62; 19.3 µM (inactive) in the assay with OVCAR-4; 14.1 µM (inactive) with LOX IMVI; 20.3 µM (inactive) in the assay with Hs-578T. Also, the GI50 with SK-MEL-2 was 19.4 µM (inactive); in the assay with M14 it was 15.6 µM (inactive).
Regarding `COc1ccc([N+](=O)[O-])c2c(NCCCN(C)C)ccnc12`, the GI50 in the assay with NCI-H226 was 7.31 µM (inactive); in the assay with MDA-MB-435 it was 9.1 µM (inactive); in the assay with BT-549 it was 2.21 µM (inactive); in the assay with SNB-75, 1.28 µM (inactive); with DU-145, 5.42 µM (inactive); with A549 it was 3.37 µM (inactive). Further, the GI50 with 786-0 was 8.36 µM (inactive); in the assay with ACHN, 2.86 µM (inactive); with MDA-MB-231, 8.3 µM (inactive); in the assay on CAKI-1 it was 8.39 µM (inactive); in the assay on UACC-257 it was 3.26 µM (inactive); in the assay with EKVX, 4.92 µM (inactive). Further, the GI50 with SF-295 was 3.61 µM (inactive); with MCF7, 5.01 µM (inactive); in the assay with HOP-62 it was 3.66 µM (inactive); in the assay with OVCAR-4, 1.51 µM (inactive); in the assay on LOX IMVI, 6.71 µM (inactive); in the assay with Hs-578T, 6.35 µM (inactive). In addition, the GI50 in the assay on SK-MEL-2 was 2.05 µM (inactive); in the assay with M14, 6.52 µM (inactive).
In the case of `O=C(N/N=C\c1ccc(Cl)cc1)Nc1cccc2ccccc12`, the GI50 is 10.4 µM (inactive) with NCI-H226; 2 µM (inactive) in the assay on MDA-MB-435; 21.7 µM (inactive) with BT-549; 2.4 µM (inactive) with SNB-75; 5.57 µM (inactive) with DU-145; 6.71 µM (inactive) in the assay with A549. The GI50 with 786-0 is 1.98 µM (inactive); with ACHN it was 2.37 µM (inactive); in the assay on MDA-MB-231, 8.89 µM (inactive); with CAKI-1, 2.42 µM (inactive); with UACC-257, 8.75 µM (inactive); with EKVX it was 18.7 µM (inactive). The GI50 in the assay with SF-295 is 2.52 µM (inactive); in the assay on MCF7, 3.4 µM (inactive); in the assay with HOP-62 it was 2.01 µM (inactive); with OVCAR-4, 2.59 µM (inactive); in the assay with LOX IMVI it was 4.49 µM (inactive); in the assay on Hs-578T it was 2.67 µM (inactive). Moreover, the values for the GI50 with SK-MEL-2 and in the assay with M14 were 21.5 µM (inactive) and 7.16 µM (inactive), respectively.
On to `COc1cccc(N2C(=O)C3c4[nH]c5ccccc5c4C4CCCC4C3C2=O)c1` (stereo not given), for which the GI50 in the assay with NCI-H226 was 2.57 µM (inactive); in the assay with MDA-MB-435, > 10 µM (inactive); in the assay with BT-549 it was > 10 µM (inactive); in the assay on SNB-75 it was 2.24 µM (inactive); with DU-145, > 10 µM (inactive); in the assay on A549, 4.62 µM (inactive). Besides, the GI50 was 2.14 µM (inactive) in the assay with 786-0; 5.93 µM (inactive) with ACHN; 2.25 µM (inactive) in the assay on MDA-MB-231; 7.16 µM (inactive) in the assay on CAKI-1; > 10 µM (inactive) with UACC-257; > 10 µM (inactive) in the assay with EKVX. Besides, the GI50 with SF-295 is > 10 µM (inactive); in the assay on MCF7 it was > 10 µM (inactive); with HOP-62 it was 2.52 µM (inactive); with OVCAR-4 it was 2.26 µM (inactive); in the assay on LOX IMVI, 5.38 µM (inactive); in the assay on Hs-578T, 3.61 µM (inactive). Also, the GI50 in the assay on SK-MEL-2 was > 10 µM (inactive); with M14, 3.06 µM (inactive).
As to `COc1ccc2oc3c(C)cc4c(OC)nnc(OC)c4c3c2c1`, the GI50 in the assay with NCI-H226 was 30.8 µM (inactive); in the assay on MDA-MB-435 it was 25.4 µM (inactive); in the assay on BT-549 it was > 100 µM (inactive); in the assay with SNB-75, 4.88 µM (inactive); with DU-145, > 100 µM (inactive); in the assay on A549 it was 9.57 µM (inactive). Besides, the GI50 with 786-0 is 7.52 µM (inactive); in the assay on ACHN it was 5.05 µM (inactive); in the assay on MDA-MB-231 it was 22.9 µM (inactive); in the assay with CAKI-1, 34 µM (inactive); in the assay with UACC-257, 42 µM (inactive); in the assay with EKVX, 17.9 µM (inactive). Also, the GI50 in the assay with SF-295 was 8.51 µM (inactive); with MCF7, 16.3 µM (inactive); with HOP-62, 17.7 µM (inactive); in the assay on OVCAR-4, 34.6 µM (inactive); in the assay on LOX IMVI, 5.55 µM (inactive); with Hs-578T, 31 µM (inactive). For the same compound, the GI50 in the assay with SK-MEL-2 is 82.4 µM (inactive); with M14, 16.5 µM (inactive).
Take `COc1ccc2nc3cc([N+](=O)[O-])ccc3c(NNc3ccc(Cl)cc3)c2c1`: the 50% growth inhibitory concentration (GI50) in the assay with NCI-H226 was 1.1 µM (active); with MDA-MB-435 it was 26.1 µM (inactive); in the assay on BT-549, 29.9 µM (inactive); in the assay on SNB-75, 40.1 µM (inactive); with DU-145, 38.9 µM (inactive); with A549, 17.2 µM (inactive). Moreover, the GI50 in the assay with 786-0 was 17.9 µM (inactive); with ACHN, 32.9 µM (inactive); in the assay on MDA-MB-231, 19.6 µM (inactive); in the assay on CAKI-1 it was 0.16 µM (active); in the assay with UACC-257, 1.01 µM (active); with EKVX, 26.2 µM (inactive). Besides, the GI50 with SF-295 was 56.8 µM (inactive); with MCF7 it was 11.6 µM (inactive); in the assay on HOP-62 it was 21.8 µM (inactive); with OVCAR-4, 38.5 µM (inactive); in the assay on LOX IMVI it was 26.9 µM (inactive); in the assay on Hs-578T it was 29.9 µM (inactive). For the same compound, the GI50 is 18.7 µM (inactive) in the assay with SK-MEL-2 and 34.7 µM (inactive) in the assay on M14.
As for `CC(O)CCNC(=O)Nc1c(C(F)(F)F)cc(-c2ccccc2)[nH]c1=O` (stereo not given), the GI50 in the assay with NCI-H226, in the assay with MDA-MB-435, with BT-549, in the assay on SNB-75, in the assay with DU-145 and in the assay on A549 was > 100 µM (inactive) in each case. For the same compound, the GI50 in the assay with 786-0, in the assay on ACHN, with MDA-MB-231, in the assay with CAKI-1, in the assay on UACC-257 and with EKVX was > 100 µM (inactive) each time. Moreover, the GI50 with SF-295, in the assay on MCF7, in the assay with HOP-62, in the assay with OVCAR-4, with LOX IMVI and in the assay on Hs-578T was > 100 µM (inactive) each time. Moreover, the GI50 in the assay with SK-MEL-2 and in the assay on M14 was > 100 µM (inactive) in each case.

The term GI50 denotes the concentration that inhibits growth by half.
